Literature values, collected in paper PMC2992174 (Journal of nuclear medicine : official publication, Society …, 2010).
Positions of bridges follow the written chain, without caps; N, C: chain ends. No end group written: not given here.

Key:
IPA = conditions: ^111In-labeled peptide, IPA in vivo

In the case of Fe-TAFC, the “uptake by Candida albicans” value (Candida albicans) is listed as “inefficient”.
In the case of CGGRLGPFC-NH2 (disulfide 1-9), the background activity (IPA) is listed as 0.14 ± 0.02 %ID/g and the target uptake (IPA) is listed as 0.37 ± 0.06 %ID/g.
